Experimental data from patent US11226337B2, “Chemoproteomic profiling of protein electrophilic and oxidative post-translational modifications” (Zenagem, LLC, priority 2017, dated 2022).

Columns and labels:
Assay in all cases: SILAC RP-ABPP
Format in all cases: cell-based
[1] = target: T1, ALDH9A1 4trimethylaminobutyraldehyde (P49189) (Homo sapiens, UniProt P49189); conditions: SILAC H/L, HEK293T
T1 construct: shared by both the endogenous and recombinant forms of these proteins; endogenous in cells; host or cells: HEK293T and MDA-MB-231
In short: (§1)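 Heavy SILAC HEK293T or MDA-MB-231 cells were treated with hydrazine probe 1 (3 mM, 0.5 h); light cells received non-clickable hydrazine 3 at the same concentration (enrichment) or probe plus 10× competitor 3 (competition). Lysates were mixed, clicked to biotin-azide and analysed by LC-MS; values are median heavy:light peptide ratios averaged over ≥3 replicates.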

[2] = target: T2, CCBL2 Kynurenine oxoglutarate transaminase (Q6YP21) (Homo sapiens, UniProt Q6YP21); conditions: SILAC H/L, HEK293T
T2 construct: shared by both the endogenous and recombinant forms of these proteins; endogenous in cells; host or cells: HEK293T and MDA-MB-231
T2 sequence (Q6YP21 whole entry): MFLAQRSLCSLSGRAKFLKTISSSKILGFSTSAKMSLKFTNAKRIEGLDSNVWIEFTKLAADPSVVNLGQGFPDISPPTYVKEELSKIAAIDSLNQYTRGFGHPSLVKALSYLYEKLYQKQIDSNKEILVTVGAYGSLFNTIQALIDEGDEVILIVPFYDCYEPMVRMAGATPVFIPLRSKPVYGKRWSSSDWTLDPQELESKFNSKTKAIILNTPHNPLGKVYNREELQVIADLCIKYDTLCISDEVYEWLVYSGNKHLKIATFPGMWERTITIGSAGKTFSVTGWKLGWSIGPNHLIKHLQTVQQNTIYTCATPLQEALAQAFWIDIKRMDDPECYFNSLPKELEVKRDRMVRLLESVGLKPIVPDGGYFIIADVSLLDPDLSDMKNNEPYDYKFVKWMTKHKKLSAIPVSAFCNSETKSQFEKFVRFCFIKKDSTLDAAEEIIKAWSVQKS
In short: as §1

[3] = target: T3, VAPA Vesicleassociated membrane (Q9P0L0) (Homo sapiens, UniProt Q9P0L0); conditions: SILAC H/L, MDA-MB-231
T3 construct: In Situ Labelling of Cells with Hydrazine Probes for MS Experiments; endogenous in cells
T3 sequence (Q9P0L0 whole entry): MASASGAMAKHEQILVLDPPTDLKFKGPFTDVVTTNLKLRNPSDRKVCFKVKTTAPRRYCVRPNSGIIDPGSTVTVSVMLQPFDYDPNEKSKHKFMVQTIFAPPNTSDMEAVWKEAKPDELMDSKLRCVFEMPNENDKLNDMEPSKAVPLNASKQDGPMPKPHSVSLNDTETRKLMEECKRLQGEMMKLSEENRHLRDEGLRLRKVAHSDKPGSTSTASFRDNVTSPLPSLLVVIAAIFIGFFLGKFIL
In short: as §1

[4] = target: T4, APP Amyloid beta A4 protein (P05067) (Homo sapiens, UniProt P05067); conditions: SILAC H/L, MDA-MB-231
T4 construct: shared by both the endogenous and recombinant forms of these proteins; endogenous in cells; host or cells: HEK293T and MDA-MB-231
T4 sequence (P05067 18-770): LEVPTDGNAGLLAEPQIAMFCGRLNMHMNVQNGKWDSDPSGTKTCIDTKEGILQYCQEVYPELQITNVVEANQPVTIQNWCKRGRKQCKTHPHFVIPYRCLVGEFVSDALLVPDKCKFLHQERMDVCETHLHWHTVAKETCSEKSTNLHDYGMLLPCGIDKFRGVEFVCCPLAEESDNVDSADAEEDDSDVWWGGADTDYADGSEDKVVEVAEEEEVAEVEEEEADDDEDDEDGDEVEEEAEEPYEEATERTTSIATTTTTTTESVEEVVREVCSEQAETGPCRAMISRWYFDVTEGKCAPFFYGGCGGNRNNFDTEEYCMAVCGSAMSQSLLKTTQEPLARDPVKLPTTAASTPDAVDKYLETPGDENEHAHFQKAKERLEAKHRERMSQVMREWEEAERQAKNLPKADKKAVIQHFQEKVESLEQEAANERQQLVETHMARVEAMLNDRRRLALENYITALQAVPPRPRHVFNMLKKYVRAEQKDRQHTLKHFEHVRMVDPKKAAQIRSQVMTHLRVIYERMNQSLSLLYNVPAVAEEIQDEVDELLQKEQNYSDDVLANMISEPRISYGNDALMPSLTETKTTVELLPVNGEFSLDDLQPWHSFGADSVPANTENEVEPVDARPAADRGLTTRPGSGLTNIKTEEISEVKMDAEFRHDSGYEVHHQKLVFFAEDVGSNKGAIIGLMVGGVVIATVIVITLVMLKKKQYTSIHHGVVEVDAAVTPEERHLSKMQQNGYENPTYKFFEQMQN
In short: as §1

[5] = target: T5, DCUN1D5 DCN1like protein 5 (Q9BTE7) (Homo sapiens, UniProt Q9BTE7); conditions: SILAC H/L, HEK293T
T5 construct: shared by both the endogenous and recombinant forms of these proteins; endogenous in cells; host or cells: HEK293T and MDA-MB-231
T5 sequence (Q9BTE7 whole entry): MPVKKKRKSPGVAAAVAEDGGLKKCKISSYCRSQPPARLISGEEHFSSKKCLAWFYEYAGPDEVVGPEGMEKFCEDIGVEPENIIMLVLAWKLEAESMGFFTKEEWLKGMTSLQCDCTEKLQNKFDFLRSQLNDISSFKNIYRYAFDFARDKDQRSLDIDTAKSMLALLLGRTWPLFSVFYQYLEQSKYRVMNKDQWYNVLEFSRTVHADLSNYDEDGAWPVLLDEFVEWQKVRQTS
In short: as §1

[6] = target: T6, IRS4 Insulin receptor substrate 4 (O14654) (Homo sapiens, UniProt O14654); conditions: SILAC H/L, HEK293T
T6 construct: In Situ Labelling of Cells with Hydrazine Probes for MS Experiments; endogenous in cells
T6 sequence (O14654 whole entry): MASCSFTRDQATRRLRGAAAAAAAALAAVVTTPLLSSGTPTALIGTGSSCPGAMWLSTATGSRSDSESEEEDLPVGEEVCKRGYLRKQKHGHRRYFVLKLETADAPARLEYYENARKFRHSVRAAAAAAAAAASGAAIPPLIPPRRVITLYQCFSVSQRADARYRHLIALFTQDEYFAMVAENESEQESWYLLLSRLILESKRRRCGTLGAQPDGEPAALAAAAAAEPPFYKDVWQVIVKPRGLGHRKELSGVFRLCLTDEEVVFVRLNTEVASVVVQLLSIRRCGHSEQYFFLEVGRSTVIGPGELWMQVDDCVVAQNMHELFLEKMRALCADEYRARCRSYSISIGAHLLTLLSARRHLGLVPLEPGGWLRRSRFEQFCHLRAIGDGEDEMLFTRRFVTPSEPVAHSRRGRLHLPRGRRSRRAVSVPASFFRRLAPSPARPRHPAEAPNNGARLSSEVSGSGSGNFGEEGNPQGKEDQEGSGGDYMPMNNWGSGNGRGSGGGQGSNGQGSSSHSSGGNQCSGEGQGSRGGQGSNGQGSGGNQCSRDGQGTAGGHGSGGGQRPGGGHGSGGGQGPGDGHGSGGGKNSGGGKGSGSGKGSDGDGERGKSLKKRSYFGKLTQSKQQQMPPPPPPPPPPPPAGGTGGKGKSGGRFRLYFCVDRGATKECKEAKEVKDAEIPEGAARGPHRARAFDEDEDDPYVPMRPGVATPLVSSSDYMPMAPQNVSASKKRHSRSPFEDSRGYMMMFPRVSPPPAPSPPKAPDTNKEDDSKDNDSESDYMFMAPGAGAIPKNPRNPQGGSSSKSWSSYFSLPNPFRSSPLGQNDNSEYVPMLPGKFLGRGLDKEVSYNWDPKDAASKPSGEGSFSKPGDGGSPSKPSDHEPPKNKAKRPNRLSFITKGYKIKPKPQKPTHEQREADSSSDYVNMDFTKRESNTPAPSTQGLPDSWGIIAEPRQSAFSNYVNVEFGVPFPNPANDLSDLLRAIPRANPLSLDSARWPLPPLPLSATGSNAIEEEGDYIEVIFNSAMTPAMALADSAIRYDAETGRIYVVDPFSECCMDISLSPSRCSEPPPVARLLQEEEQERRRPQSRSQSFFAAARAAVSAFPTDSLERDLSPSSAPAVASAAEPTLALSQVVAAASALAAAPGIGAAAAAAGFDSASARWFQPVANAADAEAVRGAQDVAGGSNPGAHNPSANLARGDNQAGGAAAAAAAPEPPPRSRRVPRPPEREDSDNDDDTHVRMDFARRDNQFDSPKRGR
In short: as §1

[7] = target: T7, THBS1 Thrombospondin1 (P07996) (Homo sapiens, UniProt P07996); conditions: SILAC H/L, MDA-MB-231
T7 construct: In Situ Labelling of Cells with Hydrazine Probes for MS Experiments; endogenous in cells
In short: as §1

[8] = target: T8, BLMH Bleomycin hydrolase (Q13867) (Homo sapiens, UniProt Q13867); conditions: SILAC H/L, HEK293T
T8 construct: In Situ Labelling of Cells with Hydrazine Probes for MS Experiments; endogenous in cells
T8 sequence (Q13867 whole entry): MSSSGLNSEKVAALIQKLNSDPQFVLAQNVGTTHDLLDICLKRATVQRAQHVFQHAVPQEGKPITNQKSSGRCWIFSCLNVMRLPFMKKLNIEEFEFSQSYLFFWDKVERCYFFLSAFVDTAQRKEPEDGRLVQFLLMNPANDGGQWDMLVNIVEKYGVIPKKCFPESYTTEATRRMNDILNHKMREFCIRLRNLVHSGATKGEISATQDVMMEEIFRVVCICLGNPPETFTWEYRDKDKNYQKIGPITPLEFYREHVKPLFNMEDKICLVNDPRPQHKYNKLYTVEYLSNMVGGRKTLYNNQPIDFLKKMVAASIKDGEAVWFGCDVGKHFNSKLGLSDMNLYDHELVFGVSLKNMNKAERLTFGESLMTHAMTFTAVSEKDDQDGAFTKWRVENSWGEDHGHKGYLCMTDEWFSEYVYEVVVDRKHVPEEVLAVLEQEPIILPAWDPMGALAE
In short: as §1

[9] = target: T9, PITRM1 Presequence protease mitochondrial (Q5JRX3) (Homo sapiens, UniProt Q5JRX3); conditions: SILAC H/L, MDA-MB-231
T9 construct: In Situ Labelling of Cells with Hydrazine Probes for MS Experiments; endogenous in cells
In short: as §1

[10] = target: T10, BLVRB Flavin reductase (NADPH) (P30043) (Homo sapiens, UniProt P30043); conditions: SILAC H/L, HEK293T
T10 construct: shared by both the endogenous and recombinant forms of these proteins; endogenous in cells; host or cells: HEK293T and MDA-MB-231
T10 sequence (P30043 whole entry): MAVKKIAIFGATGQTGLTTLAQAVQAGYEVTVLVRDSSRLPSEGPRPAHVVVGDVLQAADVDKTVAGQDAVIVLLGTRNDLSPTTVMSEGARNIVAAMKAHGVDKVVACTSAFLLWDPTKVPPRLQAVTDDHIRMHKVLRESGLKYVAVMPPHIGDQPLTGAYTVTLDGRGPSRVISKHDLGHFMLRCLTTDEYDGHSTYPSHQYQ
In short: as §1

[11] = target: T11, NSFL1C NSFL1 cofactor p47 (Q9UNZ2) (Homo sapiens, UniProt Q9UNZ2); conditions: SILAC H/L, MDA-MB-231
T11 construct: In Situ Labelling of Cells with Hydrazine Probes for MS Experiments; endogenous in cells
T11 sequence (Q9UNZ2 whole entry): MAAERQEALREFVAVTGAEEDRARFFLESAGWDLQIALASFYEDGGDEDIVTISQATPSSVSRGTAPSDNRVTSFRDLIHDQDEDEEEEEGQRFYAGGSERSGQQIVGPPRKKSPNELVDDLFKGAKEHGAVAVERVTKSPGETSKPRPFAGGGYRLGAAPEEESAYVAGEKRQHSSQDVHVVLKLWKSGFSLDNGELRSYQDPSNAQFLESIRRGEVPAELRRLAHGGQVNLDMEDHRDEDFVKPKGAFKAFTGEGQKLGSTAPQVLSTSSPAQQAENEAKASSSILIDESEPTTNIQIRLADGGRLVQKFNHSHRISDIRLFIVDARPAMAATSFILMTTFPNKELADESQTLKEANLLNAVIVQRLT
In short: as §1

[12] = target: T12, CPVL Probable serine carboxypeptidase CPVL (Q9H3G5) (Homo sapiens, UniProt Q9H3G5); conditions: SILAC H/L, HEK293T
T12 construct: shared by both the endogenous and recombinant forms of these proteins; endogenous in cells; host or cells: HEK293T and MDA-MB-231
T12 sequence (Q9H3G5 23-476): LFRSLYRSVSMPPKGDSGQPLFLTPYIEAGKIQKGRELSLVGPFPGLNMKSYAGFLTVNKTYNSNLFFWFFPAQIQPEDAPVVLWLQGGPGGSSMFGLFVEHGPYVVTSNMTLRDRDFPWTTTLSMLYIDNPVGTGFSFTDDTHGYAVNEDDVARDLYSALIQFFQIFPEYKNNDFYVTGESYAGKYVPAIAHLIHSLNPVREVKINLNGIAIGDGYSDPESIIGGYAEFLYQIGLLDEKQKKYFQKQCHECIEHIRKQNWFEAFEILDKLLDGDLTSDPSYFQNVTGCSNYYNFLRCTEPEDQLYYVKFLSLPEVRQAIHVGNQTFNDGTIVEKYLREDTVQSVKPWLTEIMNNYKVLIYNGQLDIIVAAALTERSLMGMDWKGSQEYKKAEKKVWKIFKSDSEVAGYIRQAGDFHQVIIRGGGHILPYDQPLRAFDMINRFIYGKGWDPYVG
In short: as §1

[13] = target: T13, GLA Alphagalactosidase A (P06280) (Homo sapiens, UniProt P06280); conditions: SILAC H/L, HEK293T
T13 construct: shared by both the endogenous and recombinant forms of these proteins; endogenous in cells; host or cells: HEK293T and MDA-MB-231
In short: as §1

[14] = target: T14, PPA2 Inorganic pyrophosphatase 2 (Q9H2U2) (Homo sapiens, UniProt Q9H2U2); conditions: SILAC H/L, HEK293T
T14 construct: In Situ Labelling of Cells with Hydrazine Probes for MS Experiments; endogenous in cells
T14 sequence (Q9H2U2 33-334): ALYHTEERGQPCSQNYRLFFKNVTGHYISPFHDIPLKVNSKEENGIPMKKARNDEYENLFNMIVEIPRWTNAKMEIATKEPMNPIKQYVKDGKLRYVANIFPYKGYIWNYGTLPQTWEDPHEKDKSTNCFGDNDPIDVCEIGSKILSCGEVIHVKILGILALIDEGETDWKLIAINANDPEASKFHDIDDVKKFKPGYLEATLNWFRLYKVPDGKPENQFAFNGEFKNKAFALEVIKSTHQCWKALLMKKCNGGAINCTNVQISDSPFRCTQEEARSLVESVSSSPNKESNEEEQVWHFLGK
In short: as §1

## C#CCNN.Cl [probe 1, prop-2-yn-1-ylhydrazine hydrochloride]
[1]; probe 1 3 mM 0.5 h vs probe 3
  enrichment ratioavg: 12
[1]; probe 1 vs probe 1+10x probe 3
  competition ratioavg: 2
[2]; probe 1 3 mM 0.5 h vs probe 3
  enrichment ratioavg: 10
[2]; probe 1 vs probe 1+10x probe 3
  competition ratioavg: 4
[3]; probe 1 3 mM 0.5 h vs probe 3
  enrichment ratioavg: 20
[3]; probe 1 vs probe 1+10x probe 3
  competition ratioavg: 1
[4]; probe 1 3 mM 0.5 h vs probe 3
  enrichment ratioavg: 16
[4]; probe 1 vs probe 1+10x probe 3
  competition ratioavg: 4
[5]; probe 1 3 mM 0.5 h vs probe 3
  enrichment ratioavg: 6
[5]; probe 1 vs probe 1+10x probe 3
  competition ratioavg: 2
[6]; probe 1 3 mM 0.5 h vs probe 3
  enrichment ratioavg: 20
[6]; probe 1 vs probe 1+10x probe 3
  competition ratioavg: 1
[7]; probe 1 3 mM 0.5 h vs probe 3
  enrichment ratioavg: 16
[7]; probe 1 vs probe 1+10x probe 3
  competition ratioavg: 1
[8]; probe 1 3 mM 0.5 h vs probe 3
  enrichment ratioavg: 9
[8]; probe 1 vs probe 1+10x probe 3
  competition ratioavg: 1
[9]; probe 1 3 mM 0.5 h vs probe 3
  enrichment ratioavg: 12
[9]; probe 1 vs probe 1+10x probe 3
  competition ratioavg: 2
[10]; probe 1 3 mM 0.5 h vs probe 3
  enrichment ratioavg: 20
[10]; probe 1 vs probe 1+10x probe 3
  competition ratioavg: 2
[11]; probe 1 3 mM 0.5 h vs probe 3
  enrichment ratioavg: 8
[11]; probe 1 vs probe 1+10x probe 3
  competition ratioavg: 1
[12]; probe 1 3 mM 0.5 h vs probe 3
  enrichment ratioavg: 13
[12]; probe 1 vs probe 1+10x probe 3
  competition ratioavg: 3
[13]; probe 1 3 mM 0.5 h vs probe 3
  enrichment ratioavg: 11
[13]; probe 1 vs probe 1+10x probe 3
  competition ratioavg: 3
[14]; probe 1 3 mM 0.5 h vs probe 3
  enrichment ratioavg: 7
[14]; probe 1 vs probe 1+10x probe 3
  competition ratioavg: 1
